Source: ChEMBL document CHEMBL4004803, “Syntheses and antibacterial activity of soluble 9-bromo substituted indolizinoquinoline-5,12-dione derivatives” (Eur J Med Chem, 2017)
Converted amounts (≈) assume the structure as drawn.

Columns and labels:
Type in all cases: functional
[1] = system: Staphylococcus aureus; experiment: Antibacterial activity against […] Staphylococcus aureus ATCC 25923 after 20 to 24 hrs by two-fold microdilution method
[2] = system: Enterococcus faecalis; experiment: Antibacterial activity against Enterococcus faecalis ATCC 29212 after 20 to 24 hrs by two-fold microdilution method
[3] = system: Escherichia coli; experiment: Antibacterial activity against Escherichia coli ATCC 25922 after 20 to 24 hrs by two-fold microdilution method
[4] = system: Streptococcus pneumoniae; experiment: Antibacterial activity against Streptococcus pneumoniae ATCC 6305 after 20 to 24 hrs by two-fold microdilution method
[5] = system: Streptococcus pyogenes; experiment: Antibacterial activity against Streptococcus pyogenes ATCC 19615 after 20 to 24 hrs by two-fold microdilution method
[6] = system: Staphylococcus epidermidis; experiment: Antibacterial activity against Staphylococcus epidermidis ATCC 12228 after 20 to 24 hrs by two-fold microdilution method
[7] = system: Staphylococcus aureus; experiment: Antibacterial activity against methicillin-resistant Staphylococcus aureus ATCC 43300 after 20 to 24 hrs by two-fold microdilution method
[8] = system: Staphylococcus haemolyticus; experiment: Antibacterial activity against Staphylococcus haemolyticus CICC 10373 after 20 to 24 hrs by two-fold microdilution method
[9] = system: Staphylococcus aureus; experiment: Antibacterial activity against methicillin-resistant Staphylococcus aureus 1216052 clinical isolate after 20 to 24 hrs by two-fold microdilution method
[10] = system: Staphylococcus aureus; experiment: Antibacterial activity against methicillin-resistant Staphylococcus aureus 1106003 clinical isolate after 20 to 24 hrs by two-fold microdilution method
[11] = system: Staphylococcus aureus; experiment: Antibacterial activity against methicillin-resistant Staphylococcus aureus clinical isolate after 20 to 24 hrs by two-fold microdilution method
[12] = system: Staphylococcus aureus; experiment: Antibacterial activity against methicillin-resistant Staphylococcus aureus 1103006 clinical isolate after 20 to 24 hrs by two-fold microdilution method
[13] = system: Staphylococcus aureus; experiment: Antibacterial activity against methicillin-resistant Staphylococcus aureus 1026021 clinical isolate after 20 to 24 hrs by two-fold microdilution method
[14] = system: Staphylococcus aureus; experiment: Antibacterial activity against methicillin-resistant Staphylococcus aureus 111423 clinical isolate after 20 to 24 hrs by two-fold microdilution method

| SMILES | MIC [1] [µg/mL] | MIC [2] [µg/mL] | MIC [3] [µg/mL] | MIC [4] [µg/mL] | MIC [5] [µg/mL] | MIC [6] [µg/mL] | MIC [7] [µg/mL] | MIC [8] [µg/mL] | MIC [9] [µg/mL] | MIC [10] [µg/mL] | MIC50 [11] [µg/mL] | MIC90 [11] [µg/mL] | MIC [12] [µg/mL] | MIC [13] [µg/mL] | MIC [14] [µg/mL] |
| --- | --- | --- | --- | --- | --- | --- | --- | --- | --- | --- | --- | --- | --- | --- | --- |
| CN1CCN(CCCCCOC(=O)c2c3c(n4cc(Br)ccc24)C(=O)c2ncccc2C3=O)CC1 | 0.25 (≈ 0.463 µM) | 0.25 (≈ 0.463 µM) | 2 (≈ 3.71 µM) | 2 (≈ 3.71 µM) | 8 (≈ 14.8 µM) | ≤ 0.0078 | 0.25 (≈ 0.463 µM) | 0.25 (≈ 0.463 µM) | – | – | – | – | – | – | – |
| O=C1c2cccnc2C(=O)c2c1c(C(=O)OCCCCCCN1CCCC1)c1ccc(Br)cn21 | 0.5 (≈ 0.953 µM) | 0.5 (≈ 0.953 µM) | 1 (≈ 1.91 µM) | 1 (≈ 1.91 µM) | 4 (≈ 7.63 µM) | ≤ 0.0078 | 0.5 (≈ 0.953 µM) | 2 (≈ 3.81 µM) | – | – | – | – | – | – | – |
| CN(C)CCCCOC(=O)c1c2c(n3cc(Br)ccc13)C(=O)c1ncccc1C2=O | 4 (≈ 8.5 µM) | 2 (≈ 4.25 µM) | 1 (≈ 2.13 µM) | 8 (≈ 17 µM) | 16 (≈ 34 µM) | 0.25 (≈ 0.532 µM) | 2 (≈ 4.25 µM) | 4 (≈ 8.5 µM) | – | – | – | – | – | – | – |
| O=C1c2cccnc2C(=O)c2c1c(C(=O)OCCCCCN1CCCCC1)c1ccc(Br)cn21 | 1 (≈ 1.91 µM) | 0.5 (≈ 0.953 µM) | 4 (≈ 7.63 µM) | 4 (≈ 7.63 µM) | 8 (≈ 15.3 µM) | 0.125 (≈ 0.238 µM) | 2 (≈ 3.81 µM) | 1 (≈ 1.91 µM) | – | – | – | – | – | – | – |
| CN[C@H](CC(C)C)C(=O)N[C@H]1C(=O)N[C@@H](CC(N)=O)C(=O)N[C@H]2C(=O)N[C@H]3C(=O)N[C@H](C(=O)N[C@H](C(=O)O)c4cc(O)cc(O)c4-c4cc3ccc4O)[C@H](O)c3ccc(c(Cl)c3)Oc3cc2cc(c3O[C@@H]2O[C@H](CO)[C@@H](O)[C@H](O)[C@H]2O[C@H]2C[C@](C)(N)[C@H](O)[C@H](C)O2)Oc2ccc(cc2Cl)[C@H]1O [VANCOMYCIN] | – | – | – | – | – | – | – | – | > 16 | > 16 | 1 (≈ 0.69 µM) | 2 (≈ 1.38 µM) | > 16 | 16 (≈ 11 µM) | > 16 |
| O=C1c2cccnc2C(=O)c2c1c(C(=O)OCCN1CCCC1)c1ccc(Br)cn21 | 0.5 (≈ 1.07 µM) | 0.5 (≈ 1.07 µM) | 0.5 (≈ 1.07 µM) | 4 (≈ 8.54 µM) | 8 (≈ 17.1 µM) | 0.031 (≈ 0.0662 µM) | 0.5 (≈ 1.07 µM) | 0.5 (≈ 1.07 µM) | – | – | – | – | – | – | – |
| CN1CCN(CCCOC(=O)c2c3c(n4cc(Br)ccc24)C(=O)c2ncccc2C3=O)CC1 | 8 (≈ 15.6 µM) | > 16 | > 16 | 16 (≈ 31.3 µM) | 16 (≈ 31.3 µM) | 4 (≈ 7.82 µM) | 4 (≈ 7.82 µM) | 16 (≈ 31.3 µM) | – | – | – | – | – | – | – |
| O=C1c2cccnc2C(=O)c2c1c(C(=O)OCCCN1CCCCC1)c1ccc(Br)cn21 | 4 (≈ 8.06 µM) | 4 (≈ 8.06 µM) | 8 (≈ 16.1 µM) | 16 (≈ 32.2 µM) | 16 (≈ 32.2 µM) | 0.5 (≈ 1.01 µM) | 4 (≈ 8.06 µM) | 2 (≈ 4.03 µM) | – | – | – | – | – | – | – |
| CN(C)CCCCCCOC(=O)c1c2c(n3cc(Br)ccc13)C(=O)c1ncccc1C2=O | 0.25 (≈ 0.502 µM) | 0.5 (≈ 1 µM) | 2 (≈ 4.01 µM) | 2 (≈ 4.01 µM) | 8 (≈ 16.1 µM) | ≤ 0.0078 | 0.25 (≈ 0.502 µM) | 0.5 (≈ 1 µM) | – | – | – | – | – | – | – |
| O=C1c2cccnc2C(=O)c2c1c(C(=O)OCCCCN1CCCCC1)c1ccc(Br)cn21 | 1 (≈ 1.96 µM) | 1 (≈ 1.96 µM) | 4 (≈ 7.84 µM) | 4 (≈ 7.84 µM) | 16 (≈ 31.3 µM) | 0.125 (≈ 0.245 µM) | 1 (≈ 1.96 µM) | 2 (≈ 3.92 µM) | – | – | – | – | – | – | – |
| CN(C)CCCOC(=O)c1c2c(n3cc(Br)ccc13)C(=O)c1ncccc1C2=O | 1 (≈ 2.19 µM) | 2 (≈ 4.38 µM) | 1 (≈ 2.19 µM) | 8 (≈ 17.5 µM) | 16 (≈ 35.1 µM) | 0.25 (≈ 0.548 µM) | 1 (≈ 2.19 µM) | 2 (≈ 4.38 µM) | – | – | – | – | – | – | – |
| CCOC(=O)c1c2c(n3cc(Br)ccc13)C(=O)c1ncccc1C2=O | 0.063 (≈ 0.158 µM) | 0.016 (≈ 0.0401 µM) | > 16 | 4 (≈ 10 µM) | 4 (≈ 10 µM) | 0.063 (≈ 0.158 µM) | 0.063 (≈ 0.158 µM) | 0.125 (≈ 0.313 µM) | – | – | – | – | – | – | – |
| O=C1c2cccnc2C(=O)c2c1c(C(=O)OCC(O)CO)c1ccc(Br)cn21 (configuration not stated) | 2 (≈ 4.49 µM) | > 16 | 4 (≈ 8.98 µM) | 16 (≈ 35.9 µM) | 16 (≈ 35.9 µM) | 1 (≈ 2.25 µM) | 2 (≈ 4.49 µM) | 4 (≈ 8.98 µM) | – | – | – | – | – | – | – |
| O=C1c2cccnc2C(=O)c2c1c(C(=O)OCCCCN1CCCC1)c1ccc(Br)cn21 | 2 (≈ 4.03 µM) | 1 (≈ 2.01 µM) | 1 (≈ 2.01 µM) | 4 (≈ 8.06 µM) | 8 (≈ 16.1 µM) | 0.125 (≈ 0.252 µM) | 1 (≈ 2.01 µM) | 4 (≈ 8.06 µM) | – | – | – | – | – | – | – |
| CN1CCN(CCOC(=O)c2c3c(n4cc(Br)ccc24)C(=O)c2ncccc2C3=O)CC1 | 2 (≈ 4.02 µM) | 8 (≈ 16.1 µM) | 1 (≈ 2.01 µM) | 16 (≈ 32.2 µM) | 8 (≈ 16.1 µM) | 1 (≈ 2.01 µM) | 2 (≈ 4.02 µM) | 8 (≈ 16.1 µM) | – | – | – | – | – | – | – |
| O=C1c2cccnc2C(=O)c2c1c(C(=O)OCCO)c1ccc(Br)cn21 | 0.125 (≈ 0.301 µM) | 0.25 (≈ 0.602 µM) | 4 (≈ 9.63 µM) | 8 (≈ 19.3 µM) | 8 (≈ 19.3 µM) | 0.125 (≈ 0.301 µM) | 0.125 (≈ 0.301 µM) | 0.5 (≈ 1.2 µM) | – | – | – | – | – | – | – |
| CC1(C)S[C@@H]2[C@H](NC(=O)Cc3ccccc3)C(=O)N2[C@H]1C(=O)O [PENICILLIN G] | 0.063 (≈ 0.188 µM) | 1 (≈ 2.99 µM) | > 16 | ≤ 0.0078 | ≤ 0.0078 | 8 (≈ 23.9 µM) | > 16 | ≤ 0.0078 | – | – | – | – | – | – | – |
| O=C1c2cccnc2C(=O)c2c1c(C(=O)OCCCO)c1ccc(Br)cn21 | 0.125 (≈ 0.291 µM) | 0.25 (≈ 0.582 µM) | 8 (≈ 18.6 µM) | 8 (≈ 18.6 µM) | 8 (≈ 18.6 µM) | 0.125 (≈ 0.291 µM) | 0.25 (≈ 0.582 µM) | 0.25 (≈ 0.582 µM) | – | – | – | – | – | – | – |
| O=C1c2cccnc2C(=O)c2c1c(C(=O)OCCCN1CCOCC1)c1ccc(Br)cn21 | 0.5 (≈ 1 µM) | 2 (≈ 4.01 µM) | 16 (≈ 32.1 µM) | 16 (≈ 32.1 µM) | 16 (≈ 32.1 µM) | 0.25 (≈ 0.502 µM) | 0.5 (≈ 1 µM) | 4 (≈ 8.03 µM) | – | – | – | – | – | – | – |
| CN1CCN(CCCCOC(=O)c2c3c(n4cc(Br)ccc24)C(=O)c2ncccc2C3=O)CC1 | 0.25 (≈ 0.476 µM) | 0.5 (≈ 0.952 µM) | 8 (≈ 15.2 µM) | 2 (≈ 3.81 µM) | 8 (≈ 15.2 µM) | 0.031 (≈ 0.059 µM) | 0.5 (≈ 0.952 µM) | 1 (≈ 1.9 µM) | – | – | – | – | – | – | – |
| CCOC(=O)c1c2c(n3cc(Br)ccc13)C(=O)c1nccnc1C2=O | 0.25 (≈ 0.625 µM) | – | 16 (≈ 40 µM) | – | – | – | – | – | – | – | – | – | – | – | – |
| COP(=O)(CCOC(=O)c1c2c(n3cc(Br)ccc13)C(=O)c1ncccc1C2=O)OC | 1 (≈ 1.97 µM) | 0.5 (≈ 0.986 µM) | 16 (≈ 31.5 µM) | 16 (≈ 31.5 µM) | 16 (≈ 31.5 µM) | 0.5 (≈ 0.986 µM) | 1 (≈ 1.97 µM) | 1 (≈ 1.97 µM) | – | – | – | – | – | – | – |
| O=C1c2cccnc2C(=O)c2c1c(C(=O)OCCCN1CCCC1)c1ccc(Br)cn21 | 2 (≈ 4.15 µM) | 1 (≈ 2.07 µM) | 0.5 (≈ 1.04 µM) | 4 (≈ 8.29 µM) | 8 (≈ 16.6 µM) | 0.25 (≈ 0.518 µM) | 1 (≈ 2.07 µM) | 2 (≈ 4.15 µM) | – | – | – | – | – | – | – |
| O=C1c2cccnc2C(=O)c2c1c(C(=O)OCCCCCN1CCCC1)c1ccc(Br)cn21 | 0.5 (≈ 0.98 µM) | 0.5 (≈ 0.98 µM) | 2 (≈ 3.92 µM) | 1 (≈ 1.96 µM) | 8 (≈ 15.7 µM) | ≤ 0.0078 | 0.5 (≈ 0.98 µM) | 0.25 (≈ 0.49 µM) | – | – | – | – | – | – | – |
| CCOC(=O)c1c2c(n3cccc(Br)c13)C(=O)c1nccnc1C2=O | 1 (≈ 2.5 µM) | – | > 16 | – | – | – | – | – | – | – | – | – | – | – | – |
